US8785655B2, “Ionic liquid solvents” (Dublin City University, priority 2009, dated 2014)

What was measured:
[1] = tested on: Klebsiella pneumoniae J 14368/08 ESBL-positive; assay: Screen against bacteria, MIC/IC80; type: cell-based; details: KP-E
Escherichia coli CCM4517 = assay: Screen against bacteria, MIC/IC80; type: cell-based; details: EC
Candida krusei ATCC 6258 = assay: In vitro antifungal activity, MIC by microdilution (NCCLS M27-A)
[2] = tested on: Candida lusitaniae 2446/l; assay: as above; details: CL
[3] = tested on: Candida albicans ATCC 90028; assay: as above
Absidia corymbifera 272 = assay: as above; details: AC
Candida tropicalis 156 = assay: as above; details: CT
[4] = tested on: Klebsiella pneumoniae D 11750/08; assay: Screen against bacteria, MIC/IC80; type: cell-based; details: KP
Candida glabrata 20/l = assay: In vitro antifungal activity, MIC by microdilution (NCCLS M27-A); details: CG
Procedure: In vitro antifungal activities of the compounds were evaluated on the collection of fungal strains deposited at the Department of Biological and Medical Sciences, Faculty of Pharmacy, Charles University, Czech Republic. All the isolates were maintained on Sabouraud dextrose agar prior to being tested.
Minimum inhibitory concentrations (MICs) were determined by the microdilution format of the NCCLS M27-A guidelines. […] RPMI 1640 (Sevapharma, Prague) medium supplemented with L-glutamine and buffered with 0.165 M morpholinepropanesulfonic acid to pH 7.0 was used as the test medium. The wells of the microdilution tray contained 100 μl of the RPMI 1640 medium with 2-fold serial dilutions of the compounds (1000 to 0.24 μmol/l for the new compounds) and 100 μl of inoculum suspension. Fungal inoculum in RPMI 1640 was prepared to give a final concentration of 5×103±0.2 cfu·ml-1. The trays were incubated at 35° C. and MICs were read visually for filamentous fungi and photometrically for yeasts as an optical density (OD) at 540 nm after 24 h and 48 h. The MICs were defined as 80% inhibition of the growth of control. MICs were determined twice and in duplicate. The deviations from the usually obtained were no higher than the nearest concentration value up and down the dilution scale.

[5] = tested on: Pseudomonas aeruginosa CCM 1961; assay: Screen against bacteria, MIC/IC80; type: cell-based; details: PA
[6] = tested on: Enterococcus sp. J 14365/08; assay: Screen against bacteria, MIC/IC80; type: cell-based; details: EF
[7] = tested on: Candida parapsilosis ATCC 22019; assay: In vitro antifungal activity, MIC by microdilution (NCCLS M27-A); details: CP
[8] = tested on: Staphylococcus aureus CCM 4516/08; assay: Screen against bacteria, MIC/IC80; type: cell-based; details: SA
[9] = tested on: Aspergillus fumigatus 231; assay: In vitro antifungal activity, MIC by microdilution (NCCLS M27-A); details: AF
[10] = tested on: Trichophyton mentagrophytes 445; assay: as above; details: TM
[11] = tested on: Staphylococcus aureus H 5996/08 Methiciline-resistant; assay: Screen against bacteria, MIC/IC80; type: cell-based; details: MRSA
Candida krusei E28 = assay: In vitro antifungal activity, MIC by microdilution (NCCLS M27-A)
[12] = tested on: Candida albicans ATCC 44859; assay: as above
[13] = tested on: Staphylococcus epidermidis H 6966/08; assay: Screen against bacteria, MIC/IC80; type: cell-based; details: SE

| Structure (SMILES) | MIC/IC80 ([1]; 24 h) | MIC/IC80 ([1]; 48 h) | MIC/IC80 (Escherichia coli CCM4517; 24 h) | MIC/IC80 (Escherichia coli CCM4517; 48 h) | MIC/IC80 (Candida krusei ATCC 6258; CK1, 24 h) | MIC/IC80 (Candida krusei ATCC 6258; CK1, 48 h) | MIC/IC80 ([2]; 24 h) | MIC/IC80 ([2]; 48 h) | MIC/IC80 ([3]; CA2, 24 h) | MIC/IC80 ([3]; CA2, 48 h) | MIC/IC80 (Absidia corymbifera 272; 24 h) | MIC/IC80 (Absidia corymbifera 272; 48 h) | MIC/IC80 (Candida tropicalis 156; 24 h) | MIC/IC80 (Candida tropicalis 156; 48 h) | MIC/IC80 ([4]; 24 h) | MIC/IC80 ([4]; 48 h) | MIC/IC80 (Candida glabrata 20/l; 24 h) | MIC/IC80 (Candida glabrata 20/l; 48 h) | MIC/IC80 ([5]; 24 h) | MIC/IC80 ([5]; 48 h) | further results |
| --- | --- | --- | --- | --- | --- | --- | --- | --- | --- | --- | --- | --- | --- | --- | --- | --- | --- | --- | --- | --- | --- |
| CCCCCCCCOS(=O)(=O)[O-].CCOCCOC(=O)[C@@H](OC(=O)Cn1cc[n+](C)c1)c1ccccc1 [KG305, S-3-methyl-1-[1-(ethoxyethoxycarbonyl)-1-phenylmethoxycarbonylmethyl]imidazolium octyl sulphate] | >1000 µM | >1000 µM | >1000 µM | >1000 µM | >1000 µM | >1000 µM | >1000 µM | >1000 µM | >1000 µM | >1000 µM | >1000 µM | >1000 µM | >1000 µM | >1000 µM | >1000 µM | >1000 µM | >1000 µM | >1000 µM | >1000 µM | >1000 µM | MIC/IC80 ([6]; 24 h): >1000 µM; MIC/IC80 ([6]; 48 h): >1000 µM; MIC/IC80 ([7]; 24 h): >1000 µM; MIC/IC80 ([7]; 48 h): >1000 µM; MIC/IC80 ([8]; 24 h): >1000 µM; MIC/IC80 ([8]; 48 h): >1000 µM; MIC/IC80 ([9]; 24 h): >1000 µM; MIC/IC80 ([9]; 48 h): >1000 µM; MIC/IC80 ([10]; 72 h): >1000 µM; MIC/IC80 ([10]; 120 h): >1000 µM; MIC/IC80 ([11]; 24 h): >1000 µM; MIC/IC80 ([11]; 48 h): >1000 µM; MIC/IC80 (Candida krusei E28; CK2, 24 h): >1000 µM; MIC/IC80 (Candida krusei E28; CK2, 48 h): >1000 µM; MIC/IC80 ([12]; CA1, 24 h): >1000 µM; MIC/IC80 ([12]; CA1, 48 h): >1000 µM; MIC/IC80 ([13]; 24 h): >1000 µM; MIC/IC80 ([13]; 48 h): >1000 µM |
| CCCCCCCCOS(=O)(=O)[O-].CCOCCOC(=O)C(OC(=O)Cn1cc[n+](C)c1)c1ccccc1 (stereo not drawn) [KG400, RS-3-methyl-1-[1-(ethoxyethoxycarbonyl)-1-phenylmethoxycarbonylmethyl]imidazolium octyl sulphate] | >1000 µM | >1000 µM | >1000 µM | >1000 µM | >1000 µM | >1000 µM | >1000 µM | >1000 µM | >1000 µM | >1000 µM | >1000 µM | >1000 µM | >1000 µM | >1000 µM | >1000 µM | >1000 µM | >1000 µM | >1000 µM | >1000 µM | >1000 µM | MIC/IC80 ([6]; 24 h): >1000 µM; MIC/IC80 ([6]; 48 h): >1000 µM; MIC/IC80 ([7]; 24 h): >1000 µM; MIC/IC80 ([7]; 48 h): >1000 µM; MIC/IC80 ([8]; 24 h): >1000 µM; MIC/IC80 ([8]; 48 h): >1000 µM; MIC/IC80 ([9]; 24 h): >1000 µM; MIC/IC80 ([9]; 48 h): >1000 µM; MIC/IC80 ([10]; 72 h): >1000 µM; MIC/IC80 ([10]; 120 h): >1000 µM; MIC/IC80 ([11]; 24 h): >1000 µM; MIC/IC80 ([11]; 48 h): >1000 µM; MIC/IC80 (Candida krusei E28; CK2, 24 h): >1000 µM; MIC/IC80 (Candida krusei E28; CK2, 48 h): >1000 µM; MIC/IC80 ([12]; CA1, 24 h): >1000 µM; MIC/IC80 ([12]; CA1, 48 h): >1000 µM; MIC/IC80 ([13]; 24 h): >1000 µM; MIC/IC80 ([13]; 48 h): >1000 µM |
| CCCCCOC(=O)C(OC(=O)Cn1cc[n+](C)c1)c1ccccc1.[Br-] (stereo not drawn) [KG816, RS-3-methyl-1-[1-(pentoxycarbonyl)-1-phenylmethoxycarbonylmethyl]imidazolium bromide] | >1000 µM | >1000 µM | >1000 µM | >1000 µM | 1000 µM | 1000 µM | >1000 µM | >1000 µM | 1000 µM | >1000 µM | 1000 µM | 1000 µM | 1000 µM | >1000 µM | >1000 µM | >1000 µM | 1000 µM | 1000 µM | >1000 µM | >1000 µM | MIC/IC80 ([6]; 24 h): >1000 µM; MIC/IC80 ([6]; 48 h): >1000 µM; MIC/IC80 ([7]; 24 h): >1000 µM; MIC/IC80 ([7]; 48 h): >1000 µM; MIC/IC80 ([8]; 24 h): 1000 µM; MIC/IC80 ([8]; 48 h): 1000 µM; MIC/IC80 ([9]; 24 h): 1000 µM; MIC/IC80 ([9]; 48 h): 1000 µM; MIC/IC80 ([10]; 72 h): 500 µM; MIC/IC80 ([10]; 120 h): 500 µM; MIC/IC80 ([11]; 24 h): >1000 µM; MIC/IC80 ([11]; 48 h): >1000 µM; MIC/IC80 (Candida krusei E28; CK2, 24 h): 1000 µM; MIC/IC80 (Candida krusei E28; CK2, 48 h): >1000 µM; MIC/IC80 ([12]; CA1, 24 h): 500 µM; MIC/IC80 ([12]; CA1, 48 h): 1000 µM; MIC/IC80 ([13]; 24 h): >1000 µM; MIC/IC80 ([13]; 48 h): >1000 µM |
